Laboratory results as given in patent US20140275234A1, “COMPOSITIONS AND METHODS OF USING CRYSTALLINE FORMS OF WORTMANNIN ANALOGS” (ONCOTHYREON INC., priority 2010, published 2014).

Legend:
[1] = as described in WO 2011/153488 and WO 2011/153495; cited from earlier work
[2] = tested on: phosphatidylinositol-3-kinase (PI-3K); conditions: cited from earlier work
[3] = Crystallization study in anisole, PX-866 quantified in supernatant; assay type: physicochemical
Description: 53 mg of PX-866 was placed in a 2 mL flat bottom vial and then added ˜940 μL (18 vol.) of anisole at RT. The supernatant was transferred to another vial and cooled down first to 4° C., and then to −20° C. (PX-866 quantified in aliquots of the supernatant at both temperatures). The resulted solids were dried under a stream of nitrogen and further dried under vacuum at RT for 16 hours, then dried under vacuum at 40° C. for 16 hours. PX-866 concentration in supernatant: RT: 9.9 mg/mL; 4° C.: 7.0 mg/mL; −20° C.: 6.2 mg/mL.

[4] = Initial solvent screen, visual dissolution on adding solvent in 50 μL portions; assay type: physicochemical; conditions: for Soluble: RT
Description: This initial solvent screen of PX-866 in 18 solvents was executed to select appropriate solvents for slurry experiments. Approximately 1-2 mg of the material was placed in 2 dram glass vials and the chosen solvents were added in 50 μL portions to determine the minimum amount of solvent needed for dissolution. The vials were shaken at ambient temperature and visually inspected between each addition to determine if complete dissolution had taken place.
To estimate the ratio of primary solvent to anti-solvent necessary for use in the slurry experiments, heptane or water was then added to the dissolved PX-866 in […], portions until a turbid solution was formed or solids precipitated out. […] The exceptions occurred when MeCN and AcOH were used as the primary solvent as the product oiled out upon anti-solvent addition.

[5] = Water slurry at ambient temperature; assay type: physicochemical; conditions: 0.5 g slurry in deionized water
Description: An initial solvent screen was performed on PX-866 to determine appropriate primary solvents and anti-solvents. Slurries and several precipitations were then performed utilizing several primary solvents and anti-solvents at 50 mg scale. […] The water slurry was then scaled up to 0.5 g and performed at ambient temperature. Since there was a concern for degradation taking place during the slurry at ambient temperature an additional slurry was performed on 0.5 g scale at 10° C. in an attempt to minimize any potential degradation.

[6] = Formulation and handling studies of amorphous and crystalline forms; assay type: physicochemical
Source text: In some embodiments, crystalline forms of Compound 1 and/or analogs thereof show less variability in vitro dissolution profiles as compared to the amorphous form. In some instances, crystalline forms of Compound 1 and/or analogs thereof have better flowability as compared to the amorphous form.

[7] = Solubility Screening Test I and II, HPLC of supernatant; assay type: physicochemical
Description: For each solvent, a 100 μL glass crimp-top vial was charged with ˜10 mg of PX-866 and sealed. By syringe, 2 parts of the appropriate solvent was added. If PX-866 dissolved completely, no further work was done. If necessary, more solvent was added to obtain a supernatant. The crimped vial was sonicated for 15 minutes and then centrifuged for 30 seconds. 1.0 μL of the supernatant was removed by syringe and added to a sealed HPLC vial containing 500 μL of acetonitrile. The same saturated solution was then heated for 30 minutes to a set point of 50° C., centrifuged again, and a second HPLC vial was prepared with 1.0 μL of the supernatant at 50° C. In the case of toluene, anisole, o-xylene, propyl acetate, 4-methyl-2-pentanone, and 1-pentanol the room temperature supernatant was transferred to a clean vial and cooled down to 0° C., and then −20° C. For each temperature, an HPLC vial was prepared with 1.0 μL of the supernatant. HPLC samples were run using the method described below and the 254 nm AUC was plotted on a calibration curve to obtain solubility data.
The samples that crystallized were cooled to 0° C. and subsequently −20° C. to acquire two additional temperature points. Solubility in the aliphatic solvents (propyl acetate, 4-methyl-2-pentanone, and 1-pentanol) decreased drastically with temperature from RT to −20° C.

pulmonary fibrosis = conditions: as described in WO 2010/118250; cited from earlier work
[8] = aqueous solutions at either 37° C. or 0° C. at neutral pH; cited from earlier work

For `C=CCN(/C=C1/C(=O)O[C@H](COC)[C@@]2(C)C1=C(O)C(=O)C1=C2[C@H](OC(C)=O)C[C@]2(C)C(=O)CC[C@@H]12)CC=C` [PX-866, (4S,4aR,5R,6aS,9aR, Z)-1-((diallylamino)methylene)-11-hydroxy-4-(methoxymethyl)-4-a,6a-dimethyl-2,7,10-trioxo-1,2,4,4a,5,6,6a,7,8,9,9a,10-dodecahydroindeno[4,5-h]isochromen-5-yl acetate], the “efficacy in human trials” value [1] is listed as “has shown efficacy”, the “inhibition of PI-3K” value [2] is listed as “irreversibly inhibits” and the “PX-866 concentration in supernatant” value ([3]; 4° C.) is listed as 7.0 mg/mL. The “PX-866 concentration in supernatant” value ([3]; RT) was 9.9 mg/mL, the “PX-866 concentration in supernatant” value ([3]; −20° C.) was 6.2 mg/mL and the Soluble ([4]; AcOH, vial conc. 48.0 mg/mL) was “Yes”. The Soluble ([4]; Acetone, vial conc. 38.0 mg/mL) was “Yes”, the Soluble ([4]; Acetone, vial conc. 102.0 mg/mL (Table 2A)) was “Yes” and the Soluble ([4]; DCM, vial conc. 48.0 mg/mL) was “Yes”. For the same compound, the Soluble ([4]; DMF, vial conc. 56.0 mg/mL) was “Yes”, the Soluble ([4]; Dioxane, vial conc. 38.0 mg/mL) was “Yes” and the Soluble ([4]; EtOAc, vial conc. 38.0 mg/mL) was “Yes”. For the same compound, the Soluble ([4]; EtOH, vial conc. 56.0 mg/mL) was “Yes”, the Soluble ([4]; EtOH, vial conc. 164.0 mg/mL (Table 2A)) was “Yes” and the Soluble ([4]; Heptane, vial conc. 0.4 mg/mL) was “No”. For the same compound, the Soluble ([4]; IPA, vial conc. 28.0 mg/mL) was “Yes”, the Soluble ([4]; IPA, vial conc. 106.0 mg/mL (Table 2A)) was “Yes” and the Soluble ([4]; IPAc, vial conc. 32.0 mg/mL) was “Yes”. The Soluble ([4]; MECN, vial conc. 100.0 mg/mL (Table 2A)) was “Yes”, the Soluble ([4]; MEK, vial conc. 56.0 mg/mL) was “Yes” and the Soluble ([4]; MTBE, vial conc. 13.0 mg/mL) was “Yes”. For the same compound, the Soluble ([4]; MeCN, vial conc. 16.0 mg/mL) was “Yes”, the “solubility at ambient temperature” value ([4]; MeCN, dioxane, acetone, MTBE, EtOH, EtOAc, IPAc, IPA, THF, MEK, DMF, AcOH, MeOH, toluene, DCM) was “good solubility” and the Soluble ([4]; MeOH, vial conc. 52.0 mg/mL) was “Yes”. The Soluble ([4]; MeOH, vial conc. 150.0 mg/mL (Table 2A)) was “Yes”, the Soluble ([4]; THF, vial conc. 52.0 mg/mL) was “Yes” and the Soluble ([4]; Toluene, vial conc. 56.0 mg/mL) was “Yes”. The Soluble ([4]; Water, vial conc. 0.3 mg/mL) was “Partially”, the Soluble ([4]; c-Hexane, vial conc. 0.3 mg/mL) was “No” and the Solubility ([4]; c-hexane, heptane, and water) was “limited or no solubility”. The “purity after water slurry” value [5] was “notable decrease in PX-866 purity”, the stability in solution [6] was “poor stability” and the Solubility ([7]; 1,1,1,3,3,3,hexafluoro-2-propanol, RT) was >500 @ RT mg/mL. The Solubility ([7]; 1,1,1-trichloroethane, RT) was >500 @ RT mg/mL, the Solubility ([7]; 1,1,2,2-tetrachloroethane, RT) was >500 @ RT mg/mL and the Solubility ([7]; 1,4-dioxane, RT) was >500 @ RT mg/mL. For the same compound, the Solubility ([7]; 1-butanol, RT) was >500 @ RT mg/mL, the Solubility ([7]; 1-octanol, RT) was 90.6 mg/mL and the Solubility ([7]; 1-pentanol, 0° C.) was 22.8 mg/mL. For the same compound, the Solubility ([7]; 1-pentanol, RT) was 84.4 mg/mL, the Solubility ([7]; 1-pentanol, −20° C.) was 2.4 mg/mL and the Solubility ([7]; 2,2,2-trifluoroethanol, RT) was >500 @ RT mg/mL. For the same compound, the Solubility ([7]; 2,2,4-trimethylpentane, RT) was 0.37 mg/mL, the Solubility ([7]; 2-butanone, RT) was >500 @ RT mg/mL and the Solubility ([7]; 2-ethoxyethanol, RT) was >500 @ RT mg/mL. It also gave a Solubility ([7]; 4-methyl-2-pentanone, 0° C.) of 33.4 mg/mL, a Solubility ([7]; 4-methyl-2-pentanone, RT) of 38.4 mg/mL and a Solubility ([7]; 4-methyl-2-pentanone, −20° C.) of 8.5 mg/mL. The Solubility ([7]; N-methyl-2-pyrrolidone, RT) was >500 @ RT mg/mL, the Solubility ([7]; acetone, RT) was >500 @ RT mg/mL and the Solubility ([7]; anisole, 0° C., supernatant after crystallization) was 7.0 mg/mL. It also gave a Solubility ([7]; anisole, RT, supernatant after crystallization) of 9.9 mg/mL, a Solubility ([7]; anisole, −20° C., supernatant after crystallization) of 6.2 mg/mL and a Solubility ([7]; benzyl alcohol, RT) of 498.0 mg/mL. For the same compound, the Solubility ([7]; butyl acetate, RT) was >500 @ RT mg/mL, the Solubility ([7]; chlorobenzene, RT) was 15.6 mg/mL and the Solubility ([7]; cumene, RT) was 4.9 mg/mL. The Solubility ([7]; di(ethylene glycol), RT) was 374.8 mg/mL, the Solubility ([7]; dibutyl ether, RT) was 3.1 mg/mL and the Solubility ([7]; dichloromethane, RT) was >500 @ RT mg/mL. For the same compound, the Solubility ([7]; diethyl ether, RT) was 9.5 mg/mL, the Solubility ([7]; diethylamine, RT) was >500 @ RT mg/mL and the Solubility ([7]; diisopropyl ether, RT) was 4.2 mg/mL. The Solubility ([7]; dimethylformamide, RT) was >500 @ RT mg/mL, the Solubility ([7]; dimethylsulfoxide, RT) was 252.5 mg/mL and the Solubility ([7]; ethanol, RT) was >500 @ RT mg/mL. For the same compound, the Solubility ([7]; ethanolamine, RT) was >500 @ RT mg/mL, the “Comments: PX-866 in supernatant” value ([7]; ethanolamine, RT, solution turned dark orange) was “no PX-866 detected in” and the Solubility ([7]; ethyl acetate, RT) was >500 @ RT mg/mL. The Solubility ([7]; ethyl formate, RT) was >500 @ RT mg/mL, the Solubility ([7]; ethylene glycol, RT) was 135.9 mg/mL and the Solubility ([7]; glycerol, RT) was 12.6 mg/mL. For the same compound, the Solubility ([7]; heptanes, RT) was 0.88 mg/mL, the Solubility ([7]; hexanes, RT) was 0.31 mg/mL and the Solubility ([7]; isopentanol, RT) was 228.2 mg/mL. The Solubility ([7]; isopropyl acetate, RT) was >500 @ RT mg/mL, the Solubility ([7]; isopropyl alcohol, RT) was >500 @ RT mg/mL and the Solubility ([7]; m-xylene, RT) was 4.5 mg/mL. For the same compound, the Solubility ([7]; methanol, RT) was >500 @ RT mg/mL, the Solubility ([7]; methyl acetate, RT) was >500 @ RT mg/mL and the Solubility ([7]; methyl t-butyl ether, RT) was 41.0 mg/mL. For the same compound, the Solubility ([7]; methyltetrahydrofuran, RT) was >500 @ RT mg/mL, the Solubility ([7]; nitromethane, RT) was >500 @ RT mg/mL and the Solubility ([7]; o-xylene, 0° C., supernatant after crystallization) was 7.3 mg/mL. For the same compound, the Solubility ([7]; o-xylene, RT, supernatant after crystallization) was 5.5 mg/mL, the Solubility ([7]; o-xylene, −20° C., supernatant after crystallization) was 5.7 mg/mL and the Solubility ([7]; p-xylene, RT) was 1.0 mg/mL. The Solubility ([7]; pentane, RT) was 0.79 mg/mL, the Solubility ([7]; perfluorohexane, RT) was 0.28 mg/mL and the Solubility ([7]; propyl acetate, 0° C.) was 54.8 mg/mL. The Solubility ([7]; propyl acetate, RT) was 84.6 mg/mL, the Solubility ([7]; propyl acetate, −20° C.) was 18.6 mg/mL and the Solubility ([7]; sec-butyl ether, RT) was 1.3 mg/mL. The Solubility ([7]; t-Butanol, 30° C.) was 340.0 mg/mL, the Solubility ([7]; tetrahydrofuran, RT) was >500 @ RT mg/mL and the Solubility ([7]; toluene, 0° C., supernatant after crystallization) was 2.7 mg/mL. It also gave a Solubility ([7]; toluene, RT, supernatant after crystallization) of 5.2 mg/mL, a Solubility ([7]; toluene, −20° C., supernatant after crystallization) of 2.6 mg/mL and a Solubility ([7]; water, RT) of 3.5 mg/mL. The “Comments: decomposition observed by HPLC” value ([7]; water, RT, solubility sample) was “Slightly soluble, significant decomposition” and the “efficacy in pulmonary fibrosis” value (pulmonary fibrosis) was “has shown efficacy”.

In the case of `COC[C@H]1OC(=O)c2coc3c2[C@@]1(C)C1=C(C3=O)[C@@H]2CCC(=O)[C@@]2(C)C[C@H]1OC(C)=O` [wortmannin], the “stability in aqueous solution” value [8] is given as “subject to decomposition”, the “inhibition of PI-3K” value [2] is given as “irreversibly inhibits” and the “inhibition of PI-3 kinase isoforms” value ([2]; p110α, p110β, p110δ and p110γ) is given as “inhibited equally”. The Solubility ([7]; in toluene, anisole, and o-xylene) was “low”.
